Source: patent US20050014753A1, “Novel compounds and compositions as protein kinase inhibitors” (IRM LLC, priority 2003, published 2005)

Experiments:
Format in all cases: cell-based
T3151 Bcr-abl = target: T1, T3151 Bcr-abl (Homo sapiens, UniProt P00519, T315I, cells depend on it); experiment: Antiproliferative effect on Ba/F3 cells expressing mutant Bcr-abl T315I
T1 construct: fused on or other part: P11274 (Breakpoint cluster region protein)
Description: (§1) Compounds selectively inhibiting the proliferation of these Bcr-abl transformed cells are tested for anti-proliferative activity on Ba/F3 cells expressing either wild type or the mutant forms of Bcr-abl.
(§2) 32D-p210 cells are plated into 96 well TC plates at a density of 15,000 cells per well. 50 μL of two fold serial dilutions of the test compound (Cmax is 40 μM) are added to each well (ST1571 is included as a positive control). After incubating the cells for 48 hours at 37° C., 5% CO2, 15 μL of MTT (Promega) is added to each well and the cells are incubated for an additional 5 hours. The optical density at 570 nm is quantified spectrophotometrically and IC50 values, the concentration of compound required for 50% inhibition, determined from a dose response curve.
(§3) Compounds of the invention are tested for their antiproliferative effect on Ba/F3 cells expressing either wild type or the mutant forms of Bcr-abl (G250E, E255V, T315I, F317L, M351T) that confers resistance or diminished sensitivity to STI571. The antiproliferative effect of these compounds on the mutant-Bcr-abl expressing cells and on the non transformed cells were tested at 10, 3.3, 1.1 and 0.37 μM as described above (in media lacking IL3). The IC50 values of the compounds lacking toxicity on the untransformed cells were determined from the dose response curves obtained as describe above.

M351T Bcr-abl = target: T2, M351T Bcr-abl (Homo sapiens, UniProt P00519, M351T); experiment: Antiproliferative effect on Ba/F3 cells expressing mutant Bcr-abl M351T
T2 construct: expressed in transfected cells; host or cells: Ba/F3 (murine pro-B cells); the other entry of the earlier key: BCR (P11274, Breakpoint cluster region protein)
Description: as §1, §2, §3

F317L Bcr-abl = target: T3, F317L Bcr-abl (Homo sapiens, UniProt P00519, F317L); experiment: Antiproliferative effect on Ba/F3 cells expressing mutant Bcr-abl F317L
T3 construct: expressed in transfected cells; host or cells: Ba/F3 (murine pro-B cells); the other entry of the earlier key: BCR (P11274, Breakpoint cluster region protein)
Description: as §1, §2, §3

G250E Bcr-abl = target: T4, G250E Bcr-abl (Homo sapiens, UniProt P00519, G250E); experiment: Antiproliferative effect on Ba/F3 cells expressing mutant Bcr-abl G250E
T4 construct: expressed in transfected cells; host or cells: Ba/F3 (murine pro-B cells); the other entry of the earlier key: BCR (P11274, Breakpoint cluster region protein)
Description: as §1, §2, §3

E255V Bcr-abl = target: T5, E255V Bcr-abl (Homo sapiens, UniProt P00519, E255V); experiment: Antiproliferative effect on Ba/F3 cells expressing mutant Bcr-abl E255V
T5 construct: expressed in transfected cells; host or cells: Ba/F3 (murine pro-B cells); the other entry of the earlier key: BCR (P11274, Breakpoint cluster region protein)
Description: as §1, §2, §3

wild-type Bcr-abl = target: T6, wild-type Bcr-abl (Homo sapiens, UniProt P00519); experiment: Antiproliferative effect on Ba/F3 cells expressing wild type Bcr-abl
T6 construct: expressed in transfected cells; host or cells: Ba/F3 (murine pro-B cells); the other entry of the earlier key: BCR (P11274, Breakpoint cluster region protein)
Description: as §1, §2, §3

## NC(=O)c1ccc(-c2cc(-c3cc(Nc4ccc(OC(F)(F)F)cc4)ncn3)ccn2)cc1 [Compound 97]
T3151 Bcr-abl
  IC50: 5.28 µM
M351T Bcr-abl
  IC50: 0.97 µM
F317L Bcr-abl
  IC50: 4.45 µM
G250E Bcr-abl
  IC50: 4.78 µM
E255V Bcr-abl
  IC50: 0.25 µM
wild-type Bcr-abl
  IC50: 0.2 µM
